Measured values: patent EP0753308A2, “Use of lactoferrin for therapy of acute or recurrent infectious diseases by streptococcus pyogenes or other intracellular gram positive pathogen bacteria” (priority 1995, dated 1997)

Tests used:
[1] = test system: S. pyogenes 95/1; experiment: Invasion assay in HeLa cell monolayers (gentamicin protection, CFU of viable intracellular bacteria); type: cell-based, Streptococcus pyogenes; settings: control 5 x 10^5; for Internalized bacteria (CFU/ml): absence of lactoferrin
Procedure: (§1) Streptococcus pyogenes strain 95/1 was cultured in Todd-Hewitt broth (Difco lab.). Blood agar was used for counting coloning forming units (C.F.U.). Staphylococcus aureus strain 94/3 was cultured in Brain Hearth Infusion (BHI). Mannitol Salt Agar was used for C.F.U. counts. HeLa S3 human epitelial cells (derived from epithelioid carcinoma of human cervix) were grown as monolayers at 37°C in Eagle's MEM containing 1.2 g/l of NaCo3, 2 mM glutamine, 100 U/ml penicillin, 0.1 mg/ml streptomycin and 10% heat inactivated foetal calf serum in 5% CO2 on 24-well tissue culture clusters (costar) by loading 1 ml of a solution of 1.5x10^5 cells/ml.
(§2) Semiconfluent monolayers of HeLa cells were infected with a bacterial suspension (at a multiplicity of infection of 100 exponentially grown bacteria per cell) deriving from a bacterial subculture after an incubation at 37°C for 120 min in the presence and absence of lactoferrin added at no cytotoxic nor antibacterial concentrations. After the bacterial infection (2 h at 37°C ), the monolayer was five-fold carefully washed with fosfate buffered saline (PBS) and then fresh medium (MEM, Seromed) containing 200 ug/ml of gentamicin was added. This antibiotic is well known for its impossibility to penetrate into the eukaryotic cells and to exert its bactericidal effect only towards the extracellular bacteria (free or adhered to the cells). Alter 2 h incubation period at 37°C in gentamicin, the infected cells were whashed three times with PBS and lysed by the addition of cold 0.1% Triton-X 100.
The cellular lysate was diluited with PBS and plated on selective agar medium in order to determine viable intracellular bacteria.

[2] = test system: S. aureus; experiment: as above; type: cell-based, Staphylococcus aureus; settings: proteins 1 mg/ml; erythromycin 0.02 mg/ml where present; control 7 x 10^5
Procedure: as §1
as §2, with “Alter 2 h incubation period at 37°C in gentamicin, the infected cells were whashed three times with PBS and lysed by the addition of cold 0.1% Triton-X 100.” left out

Compound	Internalized bacteria (CFU/ml) ([1]; bacteria cultured with subinhibiting antibiotic 0.1 ug/ml)	Internalized bacteria (CFU/ml) ([1]; bacteria cultured with subinhibiting antibiotic 20 ug/ml)	Intracellular bacteria (CFU/ml S. pyogenes) ([1]; proteins 1 mg/ml, erythromycin 0.02 mg/ml where present)	Intracellular bacteria (CFU/ml S. aureus) [2]
CC1(C)S[C@@H]2[C@H](NC(=O)[C@H](N)c3ccccc3)C(=O)N2[C@H]1C(=O)O [Ampicillin, ampicillin]	2 x 10^5 CFU/ml	–	–	–
CC[C@H]1OC(=O)[C@H](C)[C@@H](O[C@H]2C[C@@](C)(OC)[C@@H](O)[C@H](C)O2)[C@H](C)[C@@H](O[C@@H]2O[C@H](C)C[C@H](N(C)C)[C@H]2O)[C@](C)(O)C[C@@H](C)C(=O)[C@H](C)[C@@H](O)[C@]1(C)O [Erythromycin, erythromycin]	–	2 x 10^5 CFU/ml	2 x 10^5 CFU/ml	3 x 10^5 CFU/ml
